In the NIST ThermoML archive (doi:10.1016/j.jct.2016.02.009):
Several values for one entry are separate records, joined by “and”; a condition that tells them apart may be missing. Equal entries are not always repeated.

Test: molar heat capacity at constant pressure
Conditions: 101.33 kPa, Small (less than 1 g) adiabatic calorimetry

CCCCCCCCCCCCCCn1cc[n+](C)c1.O=S(=O)([N-]S(=O)(=O)C(F)(F)F)C(F)(F)F
Conditions	molar heat capacity at constant pressure
180 K, Crystal 2	473.1 J/K/mol
180.86 K, Crystal 2	474.8 J/K/mol
181.71 K, Crystal 2	476.2 J/K/mol
183.59 K, Crystal 2	479.9 J/K/mol
184.16 K, Crystal 2	480.9 J/K/mol
186.32 K, Crystal 2	485.4 J/K/mol
186.61 K, Crystal 2	485.8 J/K/mol
189.04 K, Crystal 2	490.7 J/K/mol
189.07 K, Crystal 2	490.4 J/K/mol
190 K, Crystal 2	492.5 J/K/mol
191.51 K, Crystal 2	495.2 J/K/mol
191.77 K, Crystal 2	496.1 J/K/mol
193.95 K, Crystal 2	500 J/K/mol
194.49 K, Crystal 2	501.3 J/K/mol
196.39 K, Crystal 2	504.9 J/K/mol
197.2 K, Crystal 2	507 J/K/mol
198.82 K, Crystal 2	509.9 J/K/mol
199.91 K, Crystal 2	512.5 J/K/mol
200 K, Crystal 2	512.7 J/K/mol
201.26 K, Crystal 2	515.7 J/K/mol
202.62 K, Crystal 2	518.2 J/K/mol
203.7 K, Crystal 2	520.6 J/K/mol
205.33 K, Crystal 2	523.7 J/K/mol
206.13 K, Crystal 2	525.4 J/K/mol
208.03 K, Crystal 2	529.6 J/K/mol
208.56 K, Crystal 2	530.7 J/K/mol
210 K, Crystal 2	533.6 J/K/mol
210.73 K, Crystal 2	535.2 J/K/mol
210.99 K, Crystal 2	535.9 J/K/mol
213.42 K, Crystal 2	541.2 J/K/mol and 540.9 J/K/mol
215.85 K, Crystal 2	546.3 J/K/mol
216.12 K, Crystal 2	547 J/K/mol
218.27 K, Crystal 2	551.8 J/K/mol
218.8 K, Crystal 2	552.9 J/K/mol
220 K, Crystal 2	556 J/K/mol
220.69 K, Crystal 2	557.4 J/K/mol
221.49 K, Crystal 2	559.3 J/K/mol
223.1 K, Crystal 2	562.9 J/K/mol
224.17 K, Crystal 2	565.7 J/K/mol
225.52 K, Crystal 2	568.8 J/K/mol
226.84 K, Crystal 2	572.3 J/K/mol
227.93 K, Crystal 2	575.1 J/K/mol
229.5 K, Crystal 2	579.5 J/K/mol
230 K, Crystal 2	580.3 J/K/mol
230.33 K, Crystal 2	581.3 J/K/mol
232.15 K, Crystal 2	586.6 J/K/mol
232.74 K, Crystal 2	587.7 J/K/mol
234.8 K, Crystal 2	593.8 J/K/mol
235.14 K, Crystal 2	593.7 J/K/mol
237.44 K, Crystal 2	600.9 J/K/mol
237.53 K, Crystal 2	600.1 J/K/mol
239.92 K, Crystal 2	607.2 J/K/mol
240 K, Crystal 2	607.6 J/K/mol
240.07 K, Crystal 2	608 J/K/mol
242.33 K, Crystal 2	613.8 J/K/mol
242.71 K, Crystal 2	616.1 J/K/mol
244.72 K, Crystal 2	621.4 J/K/mol
245.33 K, Crystal 2	624.4 J/K/mol
247.1 K, Crystal 2	629.1 J/K/mol
247.95 K, Crystal 2	632.9 J/K/mol
249.48 K, Crystal 2	637 J/K/mol
250 K, Crystal 2	639.3 J/K/mol
250.55 K, Crystal 2	642.1 J/K/mol
251.33 K, Crystal 2	642.4 J/K/mol
252.65 K, Crystal 2	648 J/K/mol
253.15 K, Crystal 2	651.7 J/K/mol
253.97 K, Crystal 2	653.1 J/K/mol
255.29 K, Crystal 2	657.1 J/K/mol
255.74 K, Crystal 2	660.9 J/K/mol
256.6 K, Crystal 2	662.4 J/K/mol
257.91 K, Crystal 2	667.6 J/K/mol
258.31 K, Crystal 2	671.7 J/K/mol
259.22 K, Crystal 2	673.8 J/K/mol
260 K, Crystal 2	677.5 J/K/mol
260.52 K, Crystal 2	679.4 J/K/mol
260.86 K, Crystal 2	683.4 J/K/mol
261.81 K, Crystal 2	685.8 J/K/mol
263.1 K, Crystal 2	692.1 J/K/mol
263.41 K, Crystal 2	696 J/K/mol
264.39 K, Crystal 2	699.3 J/K/mol
265.67 K, Crystal 2	706.4 J/K/mol
265.94 K, Crystal 2	709.4 J/K/mol
266.97 K, Crystal 2	713.8 J/K/mol
268.24 K, Crystal 2	721.6 J/K/mol
268.46 K, Crystal 2	725 J/K/mol
269.5 K, Crystal 2	730 J/K/mol
270 K, Crystal 2	734.5 J/K/mol
270.76 K, Crystal 2	739.3 J/K/mol
270.95 K, Crystal 2	741.9 J/K/mol
272.01 K, Crystal 2	748.9 J/K/mol
273.25 K, Crystal 2	759 J/K/mol
273.42 K, Crystal 2	761.2 J/K/mol
274.48 K, Crystal 2	769.6 J/K/mol
275.71 K, Crystal 2	781.6 J/K/mol
275.87 K, Crystal 2	783.5 J/K/mol
276.93 K, Crystal 2	793.6 J/K/mol
278.14 K, Crystal 2	807.6 J/K/mol
278.29 K, Crystal 2	809.7 J/K/mol
279.35 K, Crystal 2	822 J/K/mol
280 K, Crystal 2	830.5 J/K/mol
280.54 K, Crystal 2	837.6 J/K/mol
280.67 K, Crystal 2	840.7 J/K/mol
281.72 K, Crystal 2	855 J/K/mol
282.9 K, Crystal 2	874.3 J/K/mol
283.02 K, Crystal 2	878.3 J/K/mol
284.05 K, Crystal 2	895.5 J/K/mol
285.2 K, Crystal 2	918.1 J/K/mol
285.31 K, Crystal 2	923.3 J/K/mol
286.34 K, Crystal 2	943.8 J/K/mol
287.46 K, Crystal 2	972.2 J/K/mol
287.56 K, Crystal 2	977.1 J/K/mol
288.56 K, Crystal 2	1003 J/K/mol
289.65 K, Crystal 2	1034 J/K/mol
289.75 K, Crystal 2	1039 J/K/mol
290 K, Crystal 2	1046 J/K/mol
290.72 K, Crystal 2	1067 J/K/mol
291.76 K, Crystal 2	1097 J/K/mol
291.87 K, Crystal 2	1102 J/K/mol
292.8 K, Crystal 2	1118 J/K/mol
293.83 K, Crystal 2	1139 J/K/mol
293.96 K, Crystal 2	1145 J/K/mol
294.85 K, Crystal 2	1153 J/K/mol
295.5 K, Crystal 1	1155 J/K/mol
295.5 K, Crystal 2	1155 J/K/mol
295.86 K, Crystal 1	1154 J/K/mol
296 K, Crystal 1	1156 J/K/mol
296.87 K, Crystal 1	1144 J/K/mol
297.93 K, Crystal 1	998.8 J/K/mol
298.13 K, Crystal 1	971.7 J/K/mol
298.15 K, Crystal 1	971.6 J/K/mol
299.06 K, Crystal 1	853.3 J/K/mol
300 K, Crystal 1	851.8 J/K/mol
300.22 K, Crystal 1	854.4 J/K/mol
300.42 K, Crystal 1	852.5 J/K/mol
301.39 K, Crystal 1	866.6 J/K/mol
302.54 K, Crystal 1	889.6 J/K/mol
302.77 K, Crystal 1	884.7 J/K/mol
303.68 K, Crystal 1	937.6 J/K/mol
304.77 K, Crystal 1	1081 J/K/mol
304.97 K, Crystal 1	1130 J/K/mol
305.73 K, Crystal 1	1438 J/K/mol
308.77 K, Crystal 1	898.6 J/K/mol
308.77 K, Liquid	896.2 J/K/mol
310 K, Liquid	897.4 J/K/mol
320 K, Liquid	907.2 J/K/mol
330 K, Liquid	917 J/K/mol
340 K, Liquid	926.7 J/K/mol
350 K, Liquid	936.5 J/K/mol
360 K, Liquid	946.2 J/K/mol
370 K, Liquid	956 J/K/mol
